Reference: US20160022168A1, “BRAIN STATE DEPENDENT THERAPY FOR IMPROVED NEURAL TRAINING AND REHABILITATION” (UNIVERSITY OF LETHBRIDGE, priority 2014, published 2016)

Key:
auditory cortex = experiment: Population recordings in auditory cortex (A1) before, during and after tone stimulation in urethane-anesthetised rats; type: in vivo, Long Evans rats; details: for brain state in auditory cortex: urethane-anesthetised rats, carbachol infused into posterior hypothalamic nucleus, amphetamine 1 mg/kg IP, MK801 0.1 mg/kg i.p.
Method: (§1) Rats were then placed in a stereotaxic frame, and a window in the skull was prepared over primary somatosensory cortex (S1) hindlimb area (AP −1 mm; ML 2 mm; DV 1.5 mm) For auditory experiments, 8 Long Evans rats (250-350 g) were anesthetised with urethane (1.5 g/kg IP) and placed in a nasal restraint that left the ears free. A window in the skull (2×3 mm) was prepared over the primary auditory cortex. For all recordings, Applicant used silicon probes consisting of eight shanks (200 μm shank separation); each shank had 4 recording sites in a tetrode configuration (20 μm separation between sites, 160 μm^2 site area; 1-3 MOhm impedance; NeuroNexus Technologies).
To ensure that our results are not affected by differences in firing rates among animals, Applicant down sampled the multi-unit activity of all animals to match the number of spikes in the sample with the lowest firing rate.

[1] = system: primary somatosensory cortex (S1); experiment: Population recordings in primary somatosensory cortex (S1) before, during and after tactile stimulation in urethane-anesthetised rats; type: in vivo, Long Evans rats; details: for firing rate reactivation (explained variance) during the stimulation period: 1 sec intervals of spontaneous activity, FIG. 4C; for Euclidian distance between firing rate correlation matrices, evoked vs following spontaneous compared with evoked vs preceding spontaneous: FIG. 4B, paired t-test; for mean corr. coef. change of latency correlation (spontaneous vs evoked) after tactile stimulation: latency from cross-correlogram with MUA, FIG. 2E; for mean corr. coef. change of latency correlation (spontaneous vs evoked) after tactile stimulation / mean corr. coef. change of latency correlation from pairwise correlograms: mean ± SEM; for mean corr. coef. change of latency correlation from pairwise correlograms: pair-wise cross-correlograms, FIG. 2E white bars; for latency correlation after vs before stimulation (averaged values): t-test
Method: as §1
The time course of the experimental protocol is illustrated in FIG. 1A and FIG. 1B. […] Each recording period consisted of 10 min of spontaneous activity, followed by 20 minutes of tactile stimulation, and then another 10 min of spontaneous activity. The tactile stimulation consisted of 600 repetitions of 1 second stimulation at 20 Hz followed by 1 second without stimulation. The tactile stimulator consisted of a plastic rod attached at one end to a membrane of a speaker controlled by a computer. The other end of the rod was placed in contact with left hind limb.
In order to quantify temporal relations among neurons, Applicant calculated the mean spike latency as described previously. Briefly, for each neuron, latency is defined as the center of mass of a cross-correlogram of that neuron with the summed activity of all other simultaneously recorded cells (MUA), within a time window of 100 ms (FIG. 2A). Before calculating the center of mass, cross-correlograms were smoothed with a Gaussian kernel with SD=5 ms and normalized between 0 and 1 to discard effects of baseline activity. Thus this measure estimates the time when the corresponding neuron is most likely to fire with respect to the population activity. In addition to analysis of cross-correlograms between single neurons and multiunit activity as described above, Applicant also calculated latency from pair-wise cross-correlograms to look at temporal relations between neurons in more detail (FIG. 2E white bars).
Extracellular signals were high-pass filtered (0.1 Hz) and amplified (1,000 times) using a 64-channel amplifier (Neuralynx). Signals were then digitized at 32 kHz. Units were identified and isolated by a semiautomatic cluster cutting algorithm (available at: klustakwik.sourceforge.net), followed by manual clustering (MClust).
To ensure that our results are not affected by differences in firing rates among animals, Applicant down sampled the multi-unit activity of all animals to match the number of spikes in the sample with the lowest firing rate. […]
For this analysis Applicant only included neurons with a firing rate above 0.6 Hz.

Molecule | brain state in auditory cortex (auditory cortex) | firing rate reactivation (explained variance) during the stimulation period ([1]; S1) | Euclidian distance between firing rate correlation matrices, evoked vs following spontaneous compared with evoked vs preceding spontaneous ([1]; S1) | mean slope of latency correlation after stimulation ceased ([1]; S1, after stimulation FIG. 2G, ± SD) | mean slope of latency correlation, pre-stimulus spontaneous periods ([1]; S1, first three points FIG. 2G, ± SD) | mean corr. coef. change of latency correlation (spontaneous vs evoked) after tactile stimulation ([1]; S1) | mean corr. coef. change of latency correlation from pairwise correlograms ([1]; S1) | latency correlation after vs before stimulation (averaged values) ([1]; S1) | mean slope of latency correlation during stimulation ([1]; S1, three points during stimulation FIG. 2G, ± SD) | duration of desynchronized state after injection ([1]; urethane-anesthetised rats, amphetamine 1 mg/kg) | brain state (cortical activity, LFP and unit activity) in S1 ([1]; urethane 1.5 g/kg IP, amphetamine 1 mg/kg injected in addition) | replay activity (reverberation of stimulus-evoked patterns) (auditory cortex; after NMDA receptor antagonist application)
C[N+](C)(C)CCOC(N)=O [carbachol] | desynchronization of the brain state |  |  |  |  |  |  |  |  |  |  | 
d-Methamphetamine HCl |  | significant firing rate reactivation | smaller | −0.07±0.08 | −0.01±0.1 | 0.31±0.062 | 0.098±0.023 | significantly higher after stimulation | 0.11±0.12 | at least 30 minutes |  | 
CCOC(N)=O [urethane] | synchronized brain state | significant firing rate reactivation | non-significant increase in similarity |  |  | −0.03±0.06 | 0.049±0.025 | not significantly different |  |  | synchronized state | 
C[C@]12N[C@H](Cc3ccccc31)c1ccccc12 [MK801] |  |  |  |  |  |  |  |  |  |  |  | suppressed
